Source: paper PMC9024597, “The Biological Fate of a Novel Anticancer Drug Candidate TNBG-5602: Metabolic Profile, Interaction with CYP450, and Pharmacokinetics in Rats” (Molecules, 2022)

Legend:
[1] = molecular target: T1, CYP2D6 (Homo sapiens, UniProt P10635); experiment: IC50 assessment using recombinant human CYPs (probe dextromethorphan); assay type: in vitro ADME; conditions: recombinant CYP 0.025 μM, dextromethorphan 0.05 mg mL^−1, 37 °C, 30 min, n = 3; read-out: IC50 against CYP2D6
T1 construct: purchased IPHASE
T1 sequence (P10635 whole entry): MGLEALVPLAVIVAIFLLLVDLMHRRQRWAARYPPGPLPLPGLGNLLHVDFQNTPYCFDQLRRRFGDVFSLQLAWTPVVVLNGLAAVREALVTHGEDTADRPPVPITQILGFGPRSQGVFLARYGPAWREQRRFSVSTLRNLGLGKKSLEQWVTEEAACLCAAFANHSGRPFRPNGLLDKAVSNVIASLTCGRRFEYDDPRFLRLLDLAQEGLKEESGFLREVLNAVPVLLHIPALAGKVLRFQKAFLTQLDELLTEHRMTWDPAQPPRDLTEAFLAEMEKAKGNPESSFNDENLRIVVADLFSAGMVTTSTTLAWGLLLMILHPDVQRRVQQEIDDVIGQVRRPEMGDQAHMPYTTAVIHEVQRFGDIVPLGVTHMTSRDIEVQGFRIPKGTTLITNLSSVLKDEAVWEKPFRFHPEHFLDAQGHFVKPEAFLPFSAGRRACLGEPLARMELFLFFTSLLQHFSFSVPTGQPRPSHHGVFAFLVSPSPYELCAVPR
Description: Figure 12 The inhibition curves for TNBG-5602 against cytochrome enzymes (mean ± SD, n = 3). TNBG-5602 (final concentrations of 0, 0.01, 0.1, 1.0, 10.0, and 100 μM) was incubated with recombinant cytochrome P450s (final concentration 0.025 μM) and the specific probe substates (final concentration 0.05 mg mL^−1) with NADPH to initiate the metabolic reaction. The incubations were carried out at 37 °C for 30 min with a total volume of 200 μL. The CYP isoforms tested were 2D6 (dextromethorphan), 2C9 (tolbutamide), and 3A4 (testosterone). […] The IC50 values were calculated using the GraphPad Prism statistical software (Version 8) by nonlinear regression analysis.
The LC-MS/MS instrument was the same as the system used to determine TNBG-5602. The mobile phase consisted of 0.1% formic acid, aqueous solution (Solvent A), and acetonitrile (Solvent B) at a flow rate of 0.3 mL min^−1. […]
For IC50 assessment, the inhibition curves were established by nonlinear regression analysis plotting the relative activity (y) versus the logarithm of the TNBG-5602 concentration (x). The inhibition curve and the half-maximal inhibitory concentration of TNBG-5602 against each CYP isoform were analyzed using the GraphPad Prism statistical software (version 8). […]

[2] = Pharmacokinetics in rats after a single intravenous administration
Description: Sample separation was carried out on a CSH C18 Column (3.0 × 75 mm, 1.7 μm). The mobile phase consisted of Eluent A (0.1% aqueous formic acid) and Eluent B (acetonitrile: methanol, 80:20, v/v) at a flow rate of 0.4 mL min^−1. […] The column temperature was set to 35 °C. The injection volume was 5 μL. The optimized spectrometric parameters were set as follows: a capillary voltage of 4 kV, gas temperature of 300 °C, gas flow rate of 5 L min^−1, nebulizer of 45 Psi, sheath gas temperature of 250 °C, and sheath gas flow rate of 10 L min^−1. The UPLC-MS/MS data were acquired and processed using the Mass Hunter MS Optimizer software (version B.07.00). Detection was performed under multiple reaction monitoring (MRM) mode with the positive-ion electrospray-ionization (ESI) mode.
For the pharmacokinetic analyses, five rats were administered at a dose of 4.8 mg kg^−1 body weight via the caudal vein.
The whole blood samples were immediately centrifuged at 13,000 rpm for 5 min upon collection, and the supernatants were stored at −80 °C until analysis.
Obtained plasma (50 μL) was thawed and spiked with 50 μL of the IS working solution (50 ng mL^−1). The mixture was deproteinized and extracted using 1 mL of acetonitrile by using a vortex for 2 min.

[3] = Stability of TNBG-5602 rat plasma samples on storage and freeze-thaw; assay type: in vitro ADME; conditions: stored at −20 and −80 °C
[4] = test system: cancer cells and tissues; set-up: method as in PMID 31446646; conditions: oil red O staining; cited from earlier work
[5] = rats, i.v. 4.8 mg kg^−1, non-compartment model, mean, n = 5
[6] = rats, i.v. 4.8 mg kg^−1, two-compartment model, mean, n = 5

Question: Which results are given for CN(C)CCN1CC2c3ccccc3CCN2c2nc3ccccc3nc21 (stereo not shown) [TNBG-5602]?
Answer: IC50 [1]: 2520 nM; k el ([2]; rat, in vivo, iv, 4.8 mg/kg): 6.67e-05 s⁻¹; half-life ([2]; rat, plasma, iv, 4.8 mg kg^−1, half-life, rats): ~12 h; Cmax ([2]; rat, plasma, iv, 4.8 mg/kg): 171 ng/mL; MRT inf ([2]; rat, plasma, iv, 4.8 mg/kg): 15.5 h; MRT last ([2]; rat, plasma, iv, 4.8 mg/kg): 7.13 h; Vd ([2]; rat, plasma, iv, 4.8 mg/kg): 20.2 L; clearance ([2]; rat, plasma, iv, 4.8 mg/kg, CL (clearance), rats, i.v. 4.8 mg kg^−1, two-compartment model, mean, n = 5): 22 mL/min; clearance ([2]; rat, plasma, iv, 4.8 mg/kg, CLt (total body clearance), rats, i.v. 4.8 mg kg^−1, non-compartment model, mean, n = 5): 19 mL/min; Tmax ([2]; rat, plasma, iv, 4.8 mg/kg, Tmax, rats, i.v. 4.8 mg kg^−1, non-compartment model, mean, n = 5): ≤ 5 min; half-life ([2]; rat, plasma, iv, 4.8 mg/kg, t1/2, rats, i.v. 4.8 mg kg^−1, non-compartment model, mean, n = 5): 11.6 h; half-life ([2]; rat, plasma, iv, 4.8 mg/kg, t1/2β (elimination half-life), rats, i.v. 4.8 mg kg^−1, two-compartment model, mean, n = 5): 11.8 h; AUC(0–t) [2, 5]: 45513 µg·min/L; AUC(0–∞) [2, 5]: 56248 µg·min/L; t1/2 [2, 5]: 11.56 h; A (zero-time intercept of the α distribution phase) [2, 6]: 127.2 µg/L; B (zero-time intercept of the elimination phase) [2, 6]: 57.6 µg/L; K12 (transfer rate constant central to peripheral compartment) [2, 6]: 0.028 min⁻¹; K21 (transfer rate constant peripheral to central compartment) [2, 6]: 0.019 min⁻¹; Vc (apparent volume of the central compartment) [2, 6]: 6.985 L; Vp (apparent volume of the peripheral compartment) [2, 6]: 13.2 L; t1/2α [2, 6]: 0.457 h; distribution volume of the peripheral compartment relative to the central compartment ([2]; rats, i.v., two-compartment model): 1.88 fold; in vivo clearance as % liver blood flow in rats ([2]; rats, i.v., liver blood flow ref 19): 200%; apparent volume of distribution relative to total body water in rats ([2]; rats, i.v., total body water ref 19): approximately 155 fold; apparent clearance rate from the central compartment to the peripheral compartment ([2]; rats, single i.v. administration): 0.028 ± 0.033 L/min; time plasma samples were stable on storage [3]: at least 90 days; lipid accumulation in cancer cells and tissues [4]: selectively cause lipid accumulation
